# According to article PMC11564096, “Structural and mechanistic insights into Streptococcus pneumoniae NADPH oxidase” (Nature Structural & Molecular Biology, 2024):
# Assays:
# [1] = target: T1, SpNOX (Streptococcus pneumoniae NOX) (Streptococcus pneumoniae, UniProt Q8CZ28); assay type: binding; conditions: substrate-free, 1 mM FAD added; DH domain FAD site
# T1 construct: gene spr0531; residues 2-400, N-terminal 6xHis-PreScission tag cleaved, E. coli C41(DE3), LMNG micelles, monomer, 46 kDa, two b-type hemes and FAD
# T1 sequence (Q8CZ28 2-400): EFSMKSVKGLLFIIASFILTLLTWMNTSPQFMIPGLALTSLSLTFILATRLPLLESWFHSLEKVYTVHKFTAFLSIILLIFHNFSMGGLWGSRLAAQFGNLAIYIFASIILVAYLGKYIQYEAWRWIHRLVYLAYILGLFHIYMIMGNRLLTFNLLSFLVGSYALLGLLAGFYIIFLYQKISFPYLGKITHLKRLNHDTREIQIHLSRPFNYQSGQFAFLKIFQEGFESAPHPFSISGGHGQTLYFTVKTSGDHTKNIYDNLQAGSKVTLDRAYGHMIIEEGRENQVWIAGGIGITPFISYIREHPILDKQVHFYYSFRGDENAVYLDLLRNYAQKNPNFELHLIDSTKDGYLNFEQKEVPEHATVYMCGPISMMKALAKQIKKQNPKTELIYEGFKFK
# [2] = target: T1, SpNOX (Streptococcus pneumoniae NOX); experiment: cytochrome c reduction assay, absorbance at […] nm; assay type: biochemical; conditions: 100 µM bovine cytochrome c, 0.1 µM SpNOX, 1 µM FAD, 50 mM Tris pH 7.0, 250 mM NaCl, room temperature, aerobic; read-out: apparent KM
SMILES,"cryo-EM structure, 2.29 Å [1]",Km [2] [µM]
Cc1cc2nc3c(=O)[nH]c(=O)nc-3n(C[C@H](O)[C@H](O)[C@H](O)COP(=O)(O)OP(=O)(O)OC[C@H]3O[C@@H](n4cnc5c(N)ncnc54)[C@H](O)[C@@H]3O)c2cc1C [FAD],A clear density for FAD was well resolved in all maps,
NC(=O)C1=CN([C@@H]2O[C@H](COP(=O)(O)OP(=O)(O)OC[C@H]3O[C@@H](n4cnc5c(N)ncnc54)[C@H](OP(=O)(O)O)[C@@H]3O)[C@@H](O)[C@H]2O)C=CC1 [NADPH],,7.59
